{
  "source": "patent US20070021495A1",
  "about": "“SULFONAMIDES AS SELECTIVE ESTROGEN RECEPTOR” (priority 2005, published 2007)",
  "origin": "cited, not measured here",
  "key": {"[1]": {"test_system": "ovariectomized mice", "details": "dose 50 micrograms; cited from earlier work"}, "[2]": {"test_system": "Candida albicans", "details": "cited from earlier work"}},
  "data": [
    {"smiles": "COc1ccc(NS(=O)(=O)c2ccc(OC)cc2)cc1", "note": "[compound II, p-methoxybenzenesulfon-p-anisidide]", "values": [
      {"measurement": "percentage of animals which responded", "setting": "[1]", "result": 100, "unit": "%"},
      {"measurement": "Activity against Candida albicans", "setting": "[2]", "result": "some activity"}
    ]}
  ]
}
